Reference: patent US7907999B2, “Apparatus and method for measuring physiological characteristics of an intact trachea in vitro” (priority 2006, dated 2011)

Legend:
[1] = system: epithelium of intact trachea; assay: Transepithelial potential difference (Vt) and impedance (Rt) of intact perfused trachea in vitro; parameters: species or system Hartley guinea pigs; details: for effect on transepithelial impedance (Rt) / effect on transepithelial potential difference (Vt): intact guinea pig tracheal segment, each agent tested four times; for effect on transepithelial impedance (Rt): current pulses 20 μA; for effect on transepithelial impedance (Rt) / effect on Vt, summary of bar graphs (on average): agent concentration and bath as in Tables 1 and 2; for effect on transepithelial potential difference (Vt): open-circuit, 37° C., agent concentration and bath (intraluminal/extraluminal) as in Tables 1 and 2; for effect on Vt, summary of bar graphs (on average): means of four preparations
Source text: Under open circuit conditions, the first current electrode 60 (FIG. 1) introduces an electrical current into the perfusion liquid flowing into the perfusion device 12. The electrical current flows into the perfusion device, where it emanates from the inlet portion 64 (FIG. 7) and flows across the trachea wall to the second current electrode 62. The first voltage-sensing electrode 56 (FIG. 1) is in electrically continuity with the perfusion liquid in the trachea 14 (via cannula 78, tube 100, and conduits 38 and 46) and therefore senses the electrical potential inside the trachea. The second voltage-sensing electrode 58 senses the electrical potential in the extraluminal bath 54 outside of the trachea. The amplifier 18 calculates the electrical potential difference between the voltage-sensing electrodes 56, 58, which represents the transepithelial potential difference of the trachea. The amplifier 18 can also calculate the transepithelial impedance across the trachea wall based on the applied current and the measured potential difference. […] Hartley guinea pigs were anesthetized by i.p. injection of sodium pentobarbital (65 mg/kg). A 4.2-cm tracheal segment was removed and mounted on a perfusion device 12 at its in situ length. The perfusion device was placed in an extraluminal bath containing a modified Krebs-Henseleit […] solution, and was perfused at 24 ml/min with MKH solution from an intraluminal bath. Water was used as a heat transfer fluid and was supplied to the heat exchanger 20 and the outer jackets of vessels 26, 28 to maintain the temperature of the extraluminal and intraluminal baths at about 37° C. Current pulses (20 μA, 5 s duration, 50 s intervals) were delivered through the current electrodes, while the changes in the transepithelial potential difference (Vt) caused by the current pulses were monitored under open-circuit conditions. Alternatively, and as mentioned above, voltage pulses can be applied across the voltage electrodes under voltage-clamp conditions, while the changes in short circuit current are monitored. The preparation was equilibrated for 2.5 hours to allow Vt and the pressure drop (ΔP) to stabilize before the current pulses were delivered. Basal Vt (the transepithelial voltage in the basal, or steady, state of an unstimulated epithelium) was 14.8±0.8 mV. […] To determine the effects of relaxant agents, when the mechanical and bioelectric responses reached their plateau responses to MCh, the trachea was treated with agents added to the extraluminal or intraluminal bath. The agents used in this example are described in tables 1 and 2 below. The effects of the agents were analyzed statistically using student's paired t-test. P<0.05 was accepted as significant, and is indicated by an asterisk in FIGS. 8-15. The results are presented as means±SE. Each agent was tested four times. Amiloride, NPPB and bumetanide were dissolved in dimethyl sulfoxide (DMSO) (with a final concentration equal to or less than 0.04%). The other agents were prepared in MKH. Terbutaline, histamine, ouabain and bumetanide were added to the extraluminal bath; the other agents were added to the intraluminal bath. Hypersmolar solutions were prepared by adding osmolytes to MKH solution.

[2] = system: smooth muscle of intact trachea; assay: Pressure drop (ΔP) of perfusion liquid through intact trachea: smooth muscle contraction/relaxation; parameters: species or system Hartley guinea pigs; details: for effect on differential pressure (ΔP), smooth muscle contraction or relaxation: intact guinea pig tracheal segment perfused at 24 ml/min, agent concentration and bath as in Tables 1 and 2, relaxation observed after pre-contraction with MCh
Source text: As described above, the first port 50 of the differential pressure transducer 16 is in fluid communication with the openings 82 in the first cannula 78 and the second port 52 of the differential pressure transducer 16 is in fluid communication with the openings 88 in the second cannula 84. As a result, the differential pressure transducer 16 “sees” the pressure of the perfusion liquid flowing through the trachea 14 at the openings 82 and 88 and can calculate the pressure drop (ΔP) of the perfusion liquid between these two locations (as depicted in FIG. 7). […] Hartley guinea pigs were anesthetized by i.p. injection of sodium pentobarbital (65 mg/kg). A 4.2-cm tracheal segment was removed and mounted on a perfusion device 12 at its in situ length. The perfusion device was placed in an extraluminal bath containing a modified Krebs-Henseleit […] solution, and was perfused at 24 ml/min with MKH solution from an intraluminal bath. Water was used as a heat transfer fluid and was supplied to the heat exchanger 20 and the outer jackets of vessels 26, 28 to maintain the temperature of the extraluminal and intraluminal baths at about 37° C. Current pulses (20 μA, 5 s duration, 50 s intervals) were delivered through the current electrodes, while the changes in the transepithelial potential difference (Vt) caused by the current pulses were monitored under open-circuit conditions. Alternatively, and as mentioned above, voltage pulses can be applied across the voltage electrodes under voltage-clamp conditions, while the changes in short circuit current are monitored. The preparation was equilibrated for 2.5 hours to allow Vt and the pressure drop (ΔP) to stabilize before the current pulses were delivered. Basal Vt (the transepithelial voltage in the basal, or steady, state of an unstimulated epithelium) was 14.8±0.8 mV. […] To determine the effects of relaxant agents, when the mechanical and bioelectric responses reached their plateau responses to MCh, the trachea was treated with agents added to the extraluminal or intraluminal bath. The agents used in this example are described in tables 1 and 2 below. The effects of the agents were analyzed statistically using student's paired t-test. P<0.05 was accepted as significant, and is indicated by an asterisk in FIGS. 8-15. The results are presented as means±SE. Each agent was tested four times. Amiloride, NPPB and bumetanide were dissolved in dimethyl sulfoxide (DMSO) (with a final concentration equal to or less than 0.04%). The other agents were prepared in MKH. Terbutaline, histamine, ouabain and bumetanide were added to the extraluminal bath; the other agents were added to the intraluminal bath. Hypersmolar solutions were prepared by adding osmolytes to MKH solution.

Compound	effect on transepithelial impedance (Rt) [1]	effect on transepithelial potential difference (Vt) [1]	effect on differential pressure (ΔP), smooth muscle contraction or relaxation [2]	effect on Vt, summary of bar graphs (on average) [1]	effect on transepithelial potential (Vt) during pre-contraction ([1]; MCh 3×10^−7M in the extraluminal bath)	EC50 ([2]; Cavia porcellus, methacholine in the extraluminal bath, read-out: EC50 for pre-contracting the trachea) [nM]
CCCCNc1cc(C(=O)O)cc(S(N)(=O)=O)c1Oc1ccccc1 [Bumetanide]	did not effect Rt	depolarization	small degree of relaxation of the trachea			
CC(C)(C)NCC(O)c1cc(O)cc(O)c1 (centres unmarked) [Terbutaline]	did not effect Rt	transient depolarization in three of the four preparations followed by slow hyperpolarization	relaxation	did not effect Vt appreciably		
C[C@@H]1O[C@@H](O[C@H]2C[C@@H](O)[C@]3(CO)[C@H]4[C@H](O)C[C@]5(C)[C@@H](C6=CC(=O)OC6)CC[C@]5(O)[C@@H]4CC[C@]3(O)C2)[C@H](O)[C@H](O)[C@H]1O [Ouabain]	decrease in Rt	immediate depolarization	delayed contraction of the trachea	complete		
N=C(N)NC(=O)c1nc(Cl)c(N)nc1N [amiloride, Amiloride]	increase in Rt	depolarization of the epithelium	Neither agent affected ΔP			
CC(=O)OC(C)C[N+](C)(C)C (centres unmarked) [methacholine]					induced transepithelial hyperpolarization	300
[Cl-].[Na+] [NaCl]	decreased Rt	depolarization	relaxation			
OC[C@@H](O)[C@@H](O)[C@H](O)[C@H](O)CO [D-M, D-mannitol]	increased Rt	depolarization	relaxation			
O=C(O)c1cc([N+](=O)[O-])ccc1NCCCc1ccccc1 [NPPB]	negligible effect on Rt	depolarization caused by NPPB was slower to develop and greater in magnitude	Neither agent affected ΔP			
NCCc1c[nH]cn1 [Histamine]	did not effect Rt	variable Vt responses	contraction	did not effect Vt appreciably		
